In patent US5756517A, “Use of bisquinoline compounds in the treatment of cerebral disorders” (Bayer Aktiengesellschaft, priority 1996, dated 1998):

Tests used:
[1] = target: apamin binding sites / apamin receptors (apamin-sensitive potassium channels), calves' cerebral membrane; assay: Binding of 125I-apamin to calves' cerebral membrane; details: displacement of 125I-apamin (30 pM), calf hippocampus membranes, 60 min on ice
Procedure: 1) Binding of ^125 I-apamin to calves' cerebral membrane
Calf brains were obtained from the local abattoir. The hippocampus was prepared on ice and a membrane suspension was made up by homogenization twice in buffer (100 mM Tris-HCl, KCl 5 mM, pH 7.4) and centrifugation at 43,000×g. In a total volume of 500 μl, the incubation mixture contained 200 μg of membrane protein, 30 pM ^125 I-apamin and test substances in the concentration range 1×10^-9 to 1×10^-4 M. The non-specific binding of ^125 I-apamin was determined in the presence of 1×10^-7 M unlabeled apamin.
After preincubation for 30 min at room temperature (test substances and membrane homogenate), the samples were placed on ice for 10 min before the radioligand was added. The main incubation time was 60 min on ice. When the reaction time had elapsed, an excess of ice-cooled incubation buffer was added to each sample and the mixture was filtered with suction through cellulose acetate/nitrate membrane filters. The amount of bound ^125 I-apamin was measured with a gamma counter.

[2] = test system: apamine-sensitive potassium channels in PC12 cells; assay: Non-radioactive Rb+ efflux assay for the identification of potassium channel modulators (PC12 cells); type: cell-based; details: Rattus norvegicus, PC-12, 10 min, 10 min stimulation with 50 mM KCl, read-out: % inhibition of the Rb efflux at a test concentration of 10 μM
Procedure: 2) Non-radioactive Rb^+ efflux assay for the identification of potassium channel modulators
The cellular potassium in PC12 cells is exchanged with rubidium, which is not present in the cells. This exchange is performed by incubating the cells over a period of 4 h in a physiological buffer containing 5.4 mM RbCl without KCl. This rubidium subsequently serves as a tracer for potassium. The cells laden with Rb^+ in this way are washed three times and then stimulated by depolarization with 50 mM KCl to open potassium channels (10 min), causing Rb^+ to flow out of the cells into the supernatant according to the concentration gradient.
The rubidium contents in the cell supernatant and in the residual cells after they have been lyzed with 1% Triton X-100 are then. determined by means of atomic absorption spectroscopy. The relative proportion of rubidium in the cell supernatant (=Rb^+ efflux) is used as a measure of the potassium channel activity.
The effect of substances on the channel activity is measured by co-incubating the test substance over the ten-minute stimulation period and determining its effect on the Rb^+ efflux in the manner described above.

Row | Structure (SMILES) | Ki [1] [nM] | inhibition at 10 µM [2] [%]
1 | Cc1cc(NCCC(O)CCNc2cc(C)nc3ccccc23)c2ccccc2n1 [Example 14] | 190 | 
2 | Cc1cc(NCC(O)CNc2cc(C)nc3ccccc23)c2ccccc2n1 [Example 15] |  | 73
